How the values were obtained:
NSC-34 cells = experiment: Glutamate excitotoxicity model, MTT cell viability, NSC-34 cells; type: cell-based, mouse; conditions: 24 hours, 0.01-10 μM, FIG. 7A
Description: (§1) FIG. 7A-FIG. 7B illustrate the effects of 15d-PGJ2 at four different concentrations (0.01, 0.1, 1, and 10 μM) on glutamate induced neurotoxicity in NSC-34 cells (left-FIG. 7A) and primary rat cortical neurons (right-FIG. 7B). Cell viability was determined by the MTT assay. Data are shown as mean+SEM (n=6 or 12) as percentage of vehicle control (VC). Statistical significance is indicated by *<0.05 and **<0.01 as determined by One-Way ANOVA followed by Dunnett's Multiple Comparison Test, in comparison to glutamate lesion (L or Glu).
Viability of cultures was determined by the MTT assay using a plate-reader (570 nm). This assay allows the measurement of the mitochondrial dehydrogenase activity which reduces yellow MTT to dark blue formazan crystals. Since this reaction was catalyzed in living cells, this assay was used for the determination of cell viability. MTT solution was added to each well in a final concentration of 0.5 mg/ml. After 2 hours the MTT containing medium was aspired. Cells were lysed in 3% SDS and the formazan crystals were dissolved in isopropanol/HCl. Optical density was measured with a plate-reader at wavelength 570 nm. Cell survival rate was expressed as optical density (OD). Values were calculated as percent of control values (vehicle control).
15d-PGJ2 was tested in a glutamate excitotoxicity model, a model of ALS. […]

[1] = test system: primary rat cortical neurons; experiment: Glutamate excitotoxicity model, MTT cell viability, primary rat cortical neurons; type: cell-based; conditions: 24 hours, 0.01-10 μM, FIG. 7B
Description: as §1
(§2) Primary cortical neurons were prepared from time mated Sprague Dawley rats. Animals were sacrificed and embryos were dissected in Calcium and Magnesium free Hanks Balanced Salt Solution (CMF-HBSS) containing 15 mM HEPES and 10 mM NaHCO3, pH 7.2. Embryos were decapitated, skin and skull gently removed and cortical hemispheres were separated. […] Cells were counted in a hemacytometer and 4×10^4 cells per well were seeded on poly-D-lysine pre-coated 96-well plates. […]
Viability of cultures was determined by the MTT assay using a plate-reader (570 nm). […] Optical density was measured with a plate-reader at wavelength 570 nm. Cell survival rate was expressed as optical density (OD). Values were calculated as percent of control values (vehicle control). […]

M3 network genes = experiment: Validation of M3 network activation by RNA sequencing; type: cell-based; conditions: 1 μM, primary rat cortical neurons, no glutamate lesion, FIG. 5
Description: Bioinformatics predictions of M3 network activation from isoflupredone was validated in naïve neuronal cells (primary rat cortical neurons).
In parallel, 5 different test items and 2 reference items at 1 concentration each were applied to primary rat cortical neurons from […] of Sprague Dawley rats. The compounds were incubated for 8 days. […] Cell viability was determined by MTT and RNA was isolated. A number of ≧3 technical replicates were used.
Test item 1: isoflupredone (1 micromolar)
as §2
Messenger RNA was extracted from the cells and sequencing libraries were prepared using the TruSeq kit and poly-A selection. The resulting libraries were sequenced at a depth of 30 million reads per sample using single-ended 75 bp reads.

[2] = test system: TDP43 stress granule formation of U2OS cells expressing GFP-labeled human TDP43; experiment: TDP43 stress granule assay (arsenite challenge, fluorescence imaging); type: cell-based; conditions: Example 2, FIG. 4; 0.01, 0.1, 1 and 10 μM, 24 h pre-incubation, sodium arsenite 250 μM 120 min; Student's t Test vs arsenite control

Compound | effect on glutamate induced neurotoxicity (cell viability, MTT) (NSC-34 cells) | effect on glutamate induced neurotoxicity (cell viability, MTT) [1] | activation of M3 network genes (pattern of activation) (M3 network genes) | aggregation of TDP43 compared to the negative control (mean number of fluorescent aggregates per cell) [2]
CCCCC/C=C\C=C1\C(=O)C=CC1C/C=C\CCCC(=O)O (centres unmarked) [15d-PGJ2, 15-Deoxy-Δ12,14-prostaglandin J2] | neuroprotective effect | neuroprotective effect |  | 
C[C@]12C=CC(=O)C=C1CC[C@H]1[C@@H]3CC[C@](O)(C(=O)CO)[C@@]3(C)C[C@H](O)[C@@]12F [isoflupredone, (11β)-9-Fluoro-11,17,21-trihydroxypregna-1,4-diene-3,20-dione] |  |  | largely up-regulation | statistically significant decrease
CC(=O)[C@H]1CC[C@H]2[C@@H]3C[C@H](C)C4=CC(=O)CC[C@]4(C)[C@H]3[C@@H](O)C[C@]12C [medrysone] |  |  |  | did not show a statistically significant effect
